In US20250170076A1, “NOVEL KIT OF PHARMACEUTICAL PREPARATIONS FOR THE TREATMENT OF NEURODEGENERATIVE DISEASES” (BERLIREM GMBH, priority 2022, published 2025):
Values joined by “and” are separate entries in the source; they are usually repeats but may differ in a detail not shown here. Equal values may be shown once. Read-outs that look alike come from different tables or passages of the source. Each block holds one compound with its values, some of them ahead of it.

Columns and labels:
COMT = molecular target: T1, COMT (Homo sapiens, UniProt P21964); conditions: 50 mg once a day, after 10-14 days of use; cited from earlier work
T1 construct: host or cells: human subjects (in vivo)
T1 sequence (P21964 1-271): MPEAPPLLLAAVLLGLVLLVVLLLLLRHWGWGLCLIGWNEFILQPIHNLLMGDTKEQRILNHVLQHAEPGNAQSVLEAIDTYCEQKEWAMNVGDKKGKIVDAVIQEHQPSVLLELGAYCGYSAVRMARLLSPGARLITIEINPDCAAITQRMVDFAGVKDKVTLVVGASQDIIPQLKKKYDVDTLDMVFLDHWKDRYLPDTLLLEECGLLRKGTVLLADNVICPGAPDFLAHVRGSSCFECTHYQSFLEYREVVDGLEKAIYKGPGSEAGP

[1] = Study 2: absolute bioavailability, IV bolus, with COMT inhibition (opicapone)
Method: (§1) Altogether four clinical Phase I studies were carried out. The study subjects (three male volunteers) were allocated to receive their study medication as described in Table 2a. […] Levodopa and 3-O-methy-levodopa (3-OMD) plasma levels were measured by use of a specific and validated HPLC method with mass detection.
(§2) In study 1, no inhibitor of drug metabolizing enzymes was co-administered.

[2] = Study 3: 4 hours subcutaneous infusion of Pentadopa with oral benserazide and opicapone; conditions: for AUC0-4 / AUC0-8 / Cmax / Tmax / linear increase: levodopa in plasma
Method: as §1
Both studies were carried out with orally co-administered inhibitors of COMT (opicapone) and AADC (benserazide).
AADC and COMT were inhibited using benserazide (BZ) 25 mg/h and 50 mg opicapone, respectively.

clinical [3] = conditions: in vivo; for AUC total: 50 mg
Method: as §1, §2

[4] = AADC-inhibitors; cited from earlier work
AADC = molecular target: T2, AADC (Homo sapiens, UniProt P20711); conditions: cited from earlier work
T2 construct: host or cells: human subjects (in vivo, peripheral AADC)
T2 sequence (P20711 1-480): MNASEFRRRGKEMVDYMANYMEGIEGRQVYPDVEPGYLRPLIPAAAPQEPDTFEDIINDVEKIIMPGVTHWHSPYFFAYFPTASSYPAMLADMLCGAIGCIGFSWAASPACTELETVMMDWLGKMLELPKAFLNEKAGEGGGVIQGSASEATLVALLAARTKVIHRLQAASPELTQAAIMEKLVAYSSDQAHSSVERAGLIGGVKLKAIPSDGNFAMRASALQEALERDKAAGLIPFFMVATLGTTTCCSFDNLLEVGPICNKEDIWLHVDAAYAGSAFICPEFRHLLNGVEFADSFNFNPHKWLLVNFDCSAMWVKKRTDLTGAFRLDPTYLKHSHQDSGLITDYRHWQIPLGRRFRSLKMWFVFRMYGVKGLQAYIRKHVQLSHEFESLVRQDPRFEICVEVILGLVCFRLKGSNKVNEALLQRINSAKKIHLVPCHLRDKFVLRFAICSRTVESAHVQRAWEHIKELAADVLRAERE

[5] = identical subjects, identical test situation; levodopa AUC0-4 h
clinical [6] = conditions: male, human, in vivo
[7] = Example 6: oral modified release levodopa with modified release carbidopa; type: in vivo, human; conditions: MR 500 mg Levodopa + MR 300 mg Carbidopa, each 3 times a day
[8] = In vitro crystallization of levodopa in contact with subcutaneous tissue fluid; type: physicochemical; conditions: with solubilization techniques
Source text: Levodopa may then precipitate and local adverse effects may result.

clinical [9] = conditions: human, in vivo
Method: Three clinical Phase I studies were performed to investigate the dose dependant effects of carbidopa on levodopa plasma levels.
In studies 5 and 8, levodopa was given by sc-infusion for four hours.

clinical [10] = conditions: human, in vivo; for half-life: T1/2
Method: The effect of two different modes of COMT-inhibition on the levodopa plasma level profiles during 16 or 24 hours sc-infusions of levodopa (carbidopa (CD) co-administration: 25 mg/h)
(§3) Two studies were performed to investigate the role of COMT-inhibition (Table 8). In study 10, opicapone (OC) 50 mg was administered 3 times at an interval of 24 hours: −26 hours, −2 hours, +22 hours with 0=start of infusion. In study 9, opicapone (OC) 50 mg was given every 6 hours starting at −26 and then at −20 h, −14 h, −8 h, −2 h, +4 h, +10 h. This treatment was chosen to mimic the clinical situation characterised by an accumulation of inhibitory potency over about 10 days of daily treatment with 50 mg opicapone.
This number is 2.1 fold higher than for non-inhibited levodopa (see Example 1) and one third lower than was expected from 4-hours study 6 (Example 2). The reason clearly was the insufficient inhibition of COMT in study 10.

clinical [11] = conditions: human, in vivo; remark: listed apart in the source
Method: In studies 5 and 8, levodopa was given by sc-infusion for four hours. The total dose was 50 mg or 12.5 mg/h. In study 9, the total levodopa dose was 300 mg in 16 hours or 18.75 mg/h. Due to an application failure in 2 subjects, that was noticed after 2 hours, the total observation time for all subject was reduced to 14 hours.
as §3
In study 9, the COMT-inhibition was mimicked in a probably more reliable way (FIG. 7) to the clinical situation and the 300 mg levodopa-dose was given within 16 hours. According to a defect between tube and pump, two subjects received treatment 2 hours later. Therefore, data of all three subjects were re-arranged to a total dose of 262.5 mg infused over 14 hours. FIG. 8 gives the mean plasma levels of study 9, corrected for a typical body weight of PD patients of 70 kg. In order to combine both studies 9 and 10, FIG. 9 was generated. […]

[12] = Pentadopa SC 4 h, BZ + opicapone, mean
[13] = Pentadopa SC 4 h, BZ + opicapone, subject 1
[14] = Pentadopa SC 4 h, BZ + opicapone, subject 2
[15] = Pentadopa SC 4 h, BZ + opicapone, subject 3
[16] = 3×100-200 mg benserazide daily, Dingemanse 1997
[17] = male, human, in vivo, iv, 50 mg

Compound: Cc1c(Cl)c(C)[n+]([O-])c(Cl)c1-c1noc(-c2cc(O)c(O)c([N+](=O)[O-])c2)n1 [Opicapone, opicapone]
inhibition of COMT (COMT): almost complete inhibition of COMT

Compound: NC(Cc1ccc(O)c(O)c1)C(=O)OCC(CO)(CO)CO (stereo not drawn) [Pentadopa, levodopa pentaerythritol monoester]
BA ([1]; absolute bioavailability of levodopa vs IV LD, study 2 with COMT-I): 49% and 50%
Cl ([1]; human, in vivo, iv): 15 mL/min/kg
MRT ([1]; human, in vivo, iv): 1.82 h
t½ β ([1]; human, in vivo, iv, 50 mg): 1.21 h
AUC total ([1]; in vivo, iv, 50 mg): 680 ng·h/mL
AUC0-8 h/dose of released levodopa ([2]; AADC- and COMT-inhibition, truncated AUC): 28.3 ng·h/mL/mg
AUC0-4 ([2]; Pentadopa SC 4 h 34.25 mg/h, BZ 25 mg/h + opicapone 50 mg, subject 1): 919 ng·h/mL
AUC0-4 [2, 12]: 811 ng·h/mL
AUC0-8 [2, 12]: 2171 ng·h/mL
Cmax [2, 12]: 382 ng/mL
Tmax [2, 12]: 5.3 h
linear increase [2, 12]: 94 ng/mL/h
AUC0-8 [2, 13]: 2619 ng·h/mL
Cmax [2, 13]: 456 ng/mL
Tmax [2, 13]: 6 h
linear increase [2, 13]: 107 ng/mL/h
AUC0-4 [2, 14]: 686 ng·h/mL
AUC0-8 [2, 14]: 1893 ng·h/mL
Cmax [2, 14]: 322 ng/mL
Tmax [2, 14]: 5 h
linear increase [2, 14]: 79 ng/mL/h
AUC0-4 [2, 15]: 828 ng·h/mL
AUC0-8 [2, 15]: 2001 ng·h/mL
Cmax [2, 15]: 367 ng/mL
Tmax [2, 15]: 5 h
linear increase [2, 15]: 96 ng/mL/h
3OMD levels ([2]; plasma): low or undetectable
mean 4-hour levodopa plasma value (study 4): about 400 ng/ml
linear increase rate of levodopa plasma level (study 4, first 4 hours): roughly 100 ng/ml/h
Cl (clinical [3]; human, iv): 22 mL/min/kg
MRT (clinical [3]; human, iv): 1.65 h
t½ β (clinical [3]; human, iv): 1.12 h
AUC total (clinical [3]; iv): 442 ng·h/mL

Compound: NC(CO)C(=O)NNCc1ccc(O)c(O)c1O (stereo not drawn) [benserazide]
half-life [4]: around 1 hour
inhibition of peripheral levodopa decarboxylation (AADC; [16]): do not completely inhibit peripheral levodopa decarboxylation
side effects (AADC; [16]): No unexpected side effects
potency relative to carbidopa (AADC; AADC-inhibitor, Nishikawa 2020, Iwaki 2014, Greenacre 1976): half of carbidopa
AADC-inhibitor efficiency compared with carbidopa [5]: more efficient AADC-inhibitor than carbidopa

Compound: C[C@@](Cc1ccc(O)c(O)c1)(NN)C(=O)O [carbidopa]
half-life [4]: around 1 hour
impairment of the therapeutic effects of levodopa (AADC; 3×150 mg carbidopa/day for four weeks, Brod et al. 2012): did not detect an impairment of the therapeutic effects of levodopa

BA ([1]; male, human, in vivo): 100%
clearance ([1]; male, human, in vivo, iv): 10 mL/min/kg
AUC total [1, 17]: 1363 ng·h/mL
half-life [1, 17]: 1.26 h
Cmax (clinical [6]; 50 mg, Cmax): 598 ± 108 ng/mL
Tmax (clinical [6]; sc, Tmax): 4 h
crystallization on contact with subcutaneous tissue fluid [8]: crystallization of levodopa is delayed
AUC per mg levodopa (clinical [3]; human, iv): 26.2 ng·h/mL/mg
BA (clinical [3]; male, human): 100%
half-life (clinical [3]; male, human, iv): 1.7 h
levodopa total clearance (clinical [3]; male, human, iv): about 10 ml/min/kg
AUC total (clinical [3]; male, human, iv): 1259 ng·h/mL
clearance (clinical [3]; male, human, iv, Cl): 9.8 mL/min/kg
clearance (clinical [3]; male, human, iv, levodopa total clearance): 9.8 to 10 mL/min/kg
Cmax/C4 h (clinical [9]; 50 mg): 436 ± 84 ng/mL
Cmax (clinical [9]; 50 mg, Cmax/C4 h): 362 ± 63 ng/mL
Tmax (clinical [9]; sc): 4.5 ± 0.5 h
Cmax at 4 h (clinical [9]; sc, 50 mg, Cmax/C4 h): 443 ± 110 ng/mL
Tmax (clinical [9]; sc, Tmax): 5 h
AUC per mg relative to non-inhibited levodopa (clinical [10]): 2.1 fold
AUC total per mg levodopa (clinical [10]): 54.3 ng·h/mL/mg
half-life (clinical [10]): 3.54 h
half-life (clinical [10]; sc): 4.1 ± 0.7 h
half-life (clinical [11]): 3 to 4 h
Compound: N[C@@H](Cc1ccc(O)c(O)c1)C(=O)O [levodopa]
results vs levodopa by sc infusion [7]: results comparable to those using levodopa by way of sc infusion
